This assay has as its target SOS1:KRAS (G12C) interaction (Homo sapiens (Human), UniProt Q07889). In words: SOS1 KRas(G12C) FRET Assay. It is filed as binding. Conditions: 0.5 nM His10-SOS1 (res. 564-1049), 2.5 nM GST-KRAS G12C (res. 1-169), 2 hrs at RT. In short, it runs like this:
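GST-KRAS G12C (res. 1-169) at 2.5 nM and His10-SOS1 (res. 564-1049) at 0.5 nM, final, in PBS with 0.1% BSA, 5 mM MgCl2, 100 mM KF, 5 mM DTT and 0.5% DMSO. After 2 h at RT, FRET read at 665/615 nm and normalized to DMSO and no-SOS1 controls. IC50 by non-linear regression.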
Sequence of SOS1:KRAS (G12C) interaction (Q07889 564-1049, stated change not applied): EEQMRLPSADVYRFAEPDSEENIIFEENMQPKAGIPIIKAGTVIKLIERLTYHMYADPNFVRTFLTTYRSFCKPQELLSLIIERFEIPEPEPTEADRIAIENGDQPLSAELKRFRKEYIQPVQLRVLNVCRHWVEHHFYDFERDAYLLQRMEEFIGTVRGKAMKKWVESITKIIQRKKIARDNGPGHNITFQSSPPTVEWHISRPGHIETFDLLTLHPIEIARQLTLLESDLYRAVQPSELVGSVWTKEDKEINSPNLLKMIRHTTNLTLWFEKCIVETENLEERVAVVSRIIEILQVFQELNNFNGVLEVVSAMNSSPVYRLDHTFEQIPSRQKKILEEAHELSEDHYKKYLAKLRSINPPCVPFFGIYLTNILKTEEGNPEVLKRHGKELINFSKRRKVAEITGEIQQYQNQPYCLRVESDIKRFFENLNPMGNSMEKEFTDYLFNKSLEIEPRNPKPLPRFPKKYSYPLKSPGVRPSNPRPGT
`C[C@@H](NC(=O)c1cn(C2(C(F)F)CC2)c(=O)cc1NC1CCN(C)C2(CC2)C1)c1cccc(C(F)F)c1F` (stereo partly drawn) [Example 240, N-((R)-1-(3-(difluoromethyl)-2-fluorophenyl)ethyl)-1-(1-(difluoromethyl)cyclopropyl)-4-((4-methyl-4-azaspiro[2.5]octan-7-yl)amino)-6-oxo-1,6-dihydropyridine-3-carboxamide]: the IC50 is 13.5 nM.

In turn, `C[C@@H]1[C@@H](n2cc(C(=O)N[C@H](C)c3cccc(C(F)(F)F)c3F)c(N[C@H]3[C@@H]4CN(C)C[C@@H]43)cc2=O)C1(F)F` (single isomer, unassigned) [Example 197] showed an IC50 of 31.7 nM.

In turn, `C[C@@H](NC(=O)c1cn([C@@H]2CC2(F)F)c(=O)cc1N[C@H]1[C@@H]2CN(C)C[C@@H]21)c1cccc(C(F)(F)F)c1F` (single isomer, unassigned) [Example 199] showed a half-maximal inhibitory concentration (IC50) of 10.1 nM. This IC50 is about 3.1-fold lower than that of the compound before.

Compound `C[C@H](NC(=O)c1cn(C2(C(F)F)CC2)c(=O)cc1NC1CCN(C)CC1)c1ccc(F)c(C(F)(F)F)c1` (single isomer, unassigned) [Example 168] returned an IC50 of 561 nM.

`CN1C[C@@H]2[C@H](C1)[C@H]2Nc1cc(=O)n(C2(C(F)F)CC2)cc1C(=O)N[C@@H](c1cccc(C(F)F)c1F)C(F)F` [Example 158, N-((S)-1-(3-(difluoromethyl)-2-fluorophenyl)-2,2-difluoroethyl)-1-(1-(difluoromethyl)cyclopropyl)-4-(((1R,5S,6s)-3-methyl-3-azabicyclo[3.1.0]hexan-6-yl)amino)-6-oxo-1,6-dihydropyridine-3-carboxamide] returned an IC50 of 82 nM.

`C[C@@H](NC(=O)c1cn(C23CC(C2)C3)c(=O)cc1N[C@H]1[C@@H]2CN(C)C[C@@H]21)c1cccc(C(F)(F)F)c1F` [Example 205, 1-(bicyclo[1.1.1]pentan-1-yl)-N-((R)-1-(2-fluoro-3-(trifluoromethyl)phenyl)ethyl)-4-(((1R,5S,6s)-3-methyl-3-azabicyclo[3.1.0]hexan-6-yl)amino)-6-oxo-1,6-dihydropyridine-3-carboxamide] yielded an IC50 of 26.6 nM.

In the case of `C[C@@H](NC(=O)c1cn(C2(C(F)(F)F)CCCC2)c(=O)cc1NC1CCN(C)CC1)c1cccc(C(F)F)c1F` [Example 223, (R)-N-(1-(3-(difluoromethyl)-2-fluorophenyl)ethyl)-4-((1-methylpiperidin-4-yl)amino)-6-oxo-1-(1-(trifluoromethyl)cyclopentyl)-1,6-dihydropyridine-3-carboxamide], 14.1 nM corresponded to half-maximal inhibition (IC50).

In turn, `C[C@@H](NC(=O)c1cn(C2(C(F)F)CC2)c(=O)cc1N[C@H]1[C@@H]2CC[C@H]1CN(C)C2)c1cccc(C(F)F)c1F` (single isomer, unassigned) [Example 245] returned a 50% inhibitory concentration (IC50) of 44.2 nM.

`C[C@@H](NC(=O)c1cn(C23CC(C2)C3)c(=O)cc1N[C@H]1[C@@H]2CN(C)C[C@@H]21)c1cccc(C#N)c1F` [Example 179, 1-(bicyclo[1.1.1]pentan-1-yl)-N-((R)-1-(3-cyano-2-fluorophenyl)ethyl)-4-(((1R,5S,6s)-3-methyl-3-azabicyclo[3.1.0]hexan-6-yl)amino)-6-oxo-1,6-dihydropyridine-3-carboxamide]: the IC50 amounted to 70.7 nM.

Consider `Cc1c([C@@H](C)NC(=O)c2cn(C3CCOCC3)c(=O)cc2NC2CCN(C3CC3)CC2)cccc1C(F)(F)F` [Example 284, (R)-4-((1-cyclopropylpiperidin-4-yl)amino)-N-(1-(2-methyl-3-(trifluoromethyl)phenyl)ethyl)-6-oxo-1-(tetrahydro-2H-pyran-4-yl)-1,6-dihydropyridine-3-carboxamide], for which half-maximal inhibition (IC50) required 23 nM.

Turning to `C[C@@H](NC(=O)c1cn(C2CC23CCC(F)(F)CC3)c(=O)cc1N[C@H]1[C@@H]2CN(C)C[C@@H]21)c1cccc(C(F)F)c1F` (stereo partly drawn) [Example 242, N-((R)-1-(3-(difluoromethyl)-2-fluorophenyl)ethyl)-1-(6,6-difluorospiro[2.5]octan-1-yl)-4-(((1R,5S,6s)-3-methyl-3-azabicyclo[3.1.0]hexan-6-yl)amino)-6-oxo-1,6-dihydropyridine-3-carboxamide], the IC50 is 11.6 nM.

For `C[C@@H](NC(=O)c1cn([C@]2(C(F)(F)F)CCOC2)c(=O)cc1N[C@H]1[C@@H]2CN(C)C[C@@H]21)c1cccc(C(F)F)c1F` (single isomer, unassigned) [Example 235], the IC50 was found to be 142 nM.

As to `C[C@@H](NC(=O)c1cn(C23CC(C2)C3)c(=O)cc1N[C@H]1[C@@H]2CN(C)C[C@@H]21)c1cccc(C(F)(F)F)c1` [Example 160, 1-(bicyclo[1.1.1]pentan-1-yl)-4-(((1R,5S,6s)-3-methyl-3-azabicyclo[3.1.0]hexan-6-yl)amino)-6-oxo-N-((R)-1-(3-(trifluoromethyl)phenyl)ethyl)-1,6-dihydropyridine-3-carboxamide], the IC50 is 21.4 nM.

Turning to `C[C@@H](NC(=O)c1cn(C2(C(F)F)CC2)c(=O)cc1N[C@H]1[C@@H]2CN(C3CC3)C[C@@H]21)c1cccc(C(F)F)c1F` [Example 60, 4-(((1R,5S,6s)-3-cyclopropyl-3-azabicyclo[3.1.0]hexan-6-yl)amino)-N-((R)-1-(3-(difluoromethyl)-2-fluorophenyl)ethyl)-1-(1-(difluoromethyl)cyclopropyl)-6-oxo-1,6-dihydropyridine-3-carboxamide], the IC50 stood at 41.2 nM. This IC50 is about 1.9-fold higher than that of the compound before.

`Cc1c([C@@H](C)NC(=O)c2cn(C3CCOCC3)c(=O)cc2N[C@@H]2CCCCN(C)C2)cccc1C(F)(F)F` [Example 36, N-((R)-1-(2-methyl-3-(trifluoromethyl)phenyl)ethyl)-4-(((R)-1-methylazepan-3-yl)amino)-6-oxo-1-(tetrahydro-2H-pyran-4-yl)-1,6-dihydropyridine-3-carboxamide] returned a half-maximal inhibitory concentration (IC50) of 30.8 nM. The IC50 values of the last two compounds are within 1.5-fold of each other.

In turn, `C[C@@H](NC(=O)c1cn(C2CC(F)(F)C2)c(=O)cc1N[C@@H]1[C@@H]2CC[C@H]1CN(C)C2)c1cccc(C(F)F)c1F` (single isomer, unassigned) [Example 259] yielded a half-inhibitory concentration (IC50) of 10.4 nM. Against the preceding compound, the IC50 is about 3-fold lower.

As for `C[C@@H](NC(=O)c1cn(C2CCC2)c(=O)cc1N[C@@H]1[C@@H]2CC[C@H]1CN(C)C2)c1cccc(C(F)F)c1F` (single isomer, unassigned) [Example 215], 68.2 nM corresponded to half-maximal inhibition (IC50).

On to `Cc1c([C@@H](C)NC(=O)c2cn(C3CCOCC3)c(=O)cc2N[C@H]2[C@@H]3CC[C@H]2CN(C)C3)cccc1C(F)(F)F` (single isomer, unassigned) [Example 32], for which the half-inhibitory concentration (IC50) was 58.2 nM.

For the compound `C[C@@H](NC(=O)c1cn(C23COC(C(F)F)(C2)C3)c(=O)cc1NC1[C@H]2CN(C)C[C@@H]12)c1cccc(C(F)F)c1F` (stereo partly drawn) [Example 263, N-((R)-1-(3-(difluoromethyl)-2-fluorophenyl)ethyl)-1-(1-(difluoromethyl)-2-oxabicyclo[2.1.1]hexan-4-yl)-4-(((1R,5S,6s)-3-methyl-3-azabicyclo[3.1.0]hexan-6-yl)amino)-6-oxo-1,6-dihydropyridine-3-carboxamide], the 50% inhibitory concentration (IC50) came to 14.9 nM.

As to `Cc1c([C@@H](C)NC(=O)c2cn(C3CCOCC3)c(=O)cc2NC2CCNC2)cccc1C(F)(F)F` (stereo partly drawn) [Example 44, N-((R)-1-(2-methyl-3-(trifluoromethyl)phenyl)ethyl)-6-oxo-4-(pyrrolidin-3-ylamino)-1-(tetrahydro-2H-pyran-4-yl)-1,6-dihydropyridine-3-carboxamide], the IC50 was 34.6 nM.

On to `C[C@@H](NC(=O)c1cn([C@H]2C[C@@H]2C)c(=O)cc1N[C@H]1[C@@H]2CN(C)C[C@@H]21)c1cccc(C(F)F)c1F` (single isomer, unassigned) [Example 271], for which the concentration for half-maximal inhibition (IC50) is 36.9 nM.
